“Also recorded” adds a separate entry of the source.
Key:
[1] = tested on: p62 and LC3B protein expression in U87-MG cells; assay: Western blot of autophagy markers p62 and LC3B; type: cell-based, human
From the text: Ras dysregulated tumors depend on autophagy to remove damaged mitochondria and allow for their survival. […] LC3B I is lipidated to form LC3B II following induction of autophagy. LC3B II is recruited and subsequently integrated into the autophagosome. p62 functions as an adaptor protein in autophagy by binding to both ubiquitin-labeled damaged cargo such as protein aggregates or mitochondria and LC3B II to facilitate cargo uptake into the autophagosome. Degradation of the cargo occurs when the autophagosome fuses with the lysosome; when autophagy is inhibited with hydroxychloroquine (HCQ), a drug that prevents acidification of the lysosome, both LC3B II and p62 accumulate as derogation of the autophagosome is prevented, making them valuable markers of autophagic flux.
The data for FIG. 4 was obtained as follows: U87-MG cells were plated in 6-well plates at a concentration of 500,000 cells/well and allowed to adhere overnight. Cells were treated for 12 h with either DMSO or 2 μM Y102, followed by an additional 12 h co-treatment with or without 50 μM HCQ. Following treatment, cells were harvested using 0.25% trypsin, rinsed with PBS, and lysed with 75 μL modified RIPA buffer (50 mM NaCl, 1% v/v nonidet P40, 0.5% w/v sodium deoxycholate, 0.05% w/v sodium dodecyl sulfate, 50 mM Tris pH 8.0) containing 1 mM NaVO4, 1 mM NaF, 1 mM phenylmethylsulfonyl fluoride, 0.1 μg/mL leupeptin, 100 μM benzamidine HCl, 1 μM aprotinin, 0.1 μg/mL soybean trypsin inhibitor, 0.1 μg/mL pepstatin, and 0.1 μg/mL antipain. Protein was quantified using a BCA assay kit (Pierce). 40 μg of protein prepared in 1× Laemmli sample buffer (50 mM Tris pH 6.8, 0.02% w/v bromophenol blue, 2% w/v sodium dodecyl sulfate, 10% v/v glycerol, 1% v/v beta-mercaptoethanol, 12.5 mM EDTA) was separated on a 4-15% polyacrylamide gel using sodium dodecyl sulfate-polyacrylamide gel electrophoresis. Protein was transferred to nitrocellulose membrane, blocked in 5% nonfat milk in TBST, and probed with primary antibodies anti-LC3BI/II (Cell Signaling, 1:1000, overnight at 4° C.), anti-p62/SQSTM-1 D-3 (Santa Cruz, 1:1000, 1 h at room temperature), or anti-α-tubulin B-1-2-5 (Santa Cruz, 1:10000, 1 h at room temperature) in 2% nonfat milk in TBST. Blots were incubated in 1:20,000 anti-rabbit HRP or 1:10,000 anti-mouse HRP secondary antibodies diluted in 2% nonfat milk in TBST for 1 h at room temperature. Film was exposed to standard ECL (Pierce)-coated blots and developed using a standard film processor.

ROS in U87-MG cells = assay: ROS detection by DCF-DA immunofluorescence; type: cell-based, human; conditions: Y102 2.2 or 4.5 μM 24 h, S1 20 μM 1 h, vs DMSO
Protocol: Damaged mitochondria generate and accumulate reactive oxygen species (ROS), which are damaging to the cell. RAS dysregulated tumors are reported to depend on autophagy in order to remove the damaged mitochondria and allow for their survival (22). […] The ROS detection reagent DCF-DA, which is converted to its fluorescent form DCF upon ROS-mediated oxidation, was used to examine if ROS levels increase with Y102 treatment.
The data for FIG. 5 was obtained as follows: U87-MG cells were plated on poly-D-lysine (Neuvitro Corporation) coated coverslips at a concentration of 50,000 cells/well in a 24-well plate and allowed to adhere overnight. Cells were treated for 24 h with DMSO, 2.2 μM Y102, or 4.5 μM Y102, or for 1 h with 20 μM S1. 30 minutes prior to treatment end, cells were stained with 20 μM 2′, 7′-dichlorofluorescin diacetate (DCFDA, Sigma, green) at 37° C. Following staining, cells were fixed for 10 minutes with 3.7% formaldehyde. After an additional two washes with PBST, cell nuclei were stained with 0.33 μg/mL DAPI (Molecular Probes) for 30 minutes (blue). Coverslips were mounted on glass slides with ProLong Gold antifade medium. Wide-field images were taken with a Zeiss Imager Z1 wide-field microscope using a 40×1.3 NA EC Plan-NEOFLUAR objective and Zeiss Axiovision software. Scale bar, 20 μm.

## Cn1cnnc1S/C=C/C(=O)c1ccc(F)cc1 [Y102]
[1]; 12 hours Y102 followed by 12 hours HCQ co-treatment
  LC3B I/II conversion (LC3B II accumulation): LC3B II accumulation occurred, but not as robustly as with HCQ alone; also recorded: LC3B I/II conversion was seen
[1]; U87-MG, Western blot, 24 hours, 2 μM Y102, 50 μM HCQ
  p62 accumulation (autophagy marker): accumulation of the autophagy marker p62
[1]; U87-MG, Western blot, single agent, 2 μM Y102, 50 μM HCQ
  LC3B I/II conversion (LC3B II accumulation): not found to accumulate; also recorded: not LC3B I/II conversion
ROS in U87-MG cells
  ROS accumulation (DCF-DA): ROS were found to accumulate; also recorded: accumulation of ROS

Reference: patent publication US9873705B2, “Vinylogous thioester compounds and methods of use” (THE TRUSTEES OF DARTMOUTH COLLEGE, priority 2015, dated 2018)
